pIC50: −log10 of the molar value.
Legend:
[1] = molecular target: T1, Estrogen receptor beta (Homo sapiens, UniProt Q92731)
[2] = molecular target: T2, Mineralocorticoid receptor (Homo sapiens, UniProt P08235); assay: Agonist activity at mineralocorticoid receptor ligand binding domain expressed in african green monkey COS7 cells co-transfected with Gal4-LBD up to 10 uM by luciferase reporter gene assay; type: cell-based; settings: cos-7
T2 sequence (P08235 whole entry): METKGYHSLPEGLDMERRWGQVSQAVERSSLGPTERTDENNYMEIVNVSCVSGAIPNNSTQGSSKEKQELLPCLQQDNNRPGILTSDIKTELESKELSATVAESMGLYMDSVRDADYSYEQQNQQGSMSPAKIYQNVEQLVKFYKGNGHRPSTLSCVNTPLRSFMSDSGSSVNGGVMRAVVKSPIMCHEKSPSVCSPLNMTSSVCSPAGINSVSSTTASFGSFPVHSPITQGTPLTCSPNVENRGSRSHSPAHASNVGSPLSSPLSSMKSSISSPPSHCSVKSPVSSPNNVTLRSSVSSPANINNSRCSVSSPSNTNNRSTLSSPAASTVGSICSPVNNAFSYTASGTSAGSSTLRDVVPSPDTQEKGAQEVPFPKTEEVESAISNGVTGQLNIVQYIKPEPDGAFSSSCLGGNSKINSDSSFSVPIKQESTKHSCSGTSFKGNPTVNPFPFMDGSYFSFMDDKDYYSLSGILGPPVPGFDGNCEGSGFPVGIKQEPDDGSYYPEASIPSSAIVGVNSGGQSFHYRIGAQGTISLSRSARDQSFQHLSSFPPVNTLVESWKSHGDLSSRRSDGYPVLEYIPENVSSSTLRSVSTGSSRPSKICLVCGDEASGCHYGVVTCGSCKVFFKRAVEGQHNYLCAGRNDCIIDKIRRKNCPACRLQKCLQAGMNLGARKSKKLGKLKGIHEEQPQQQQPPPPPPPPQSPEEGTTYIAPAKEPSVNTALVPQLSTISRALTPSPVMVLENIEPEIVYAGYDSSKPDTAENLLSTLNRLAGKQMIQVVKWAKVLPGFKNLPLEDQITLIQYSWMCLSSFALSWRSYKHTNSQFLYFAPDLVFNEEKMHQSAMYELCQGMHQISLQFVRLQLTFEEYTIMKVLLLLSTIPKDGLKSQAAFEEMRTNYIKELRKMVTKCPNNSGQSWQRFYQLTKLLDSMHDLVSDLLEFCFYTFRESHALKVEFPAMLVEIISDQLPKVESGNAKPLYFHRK

[3] = molecular target: T1, Estrogen receptor beta; assay: Antagonist activity at estrogen receptor beta ligand binding domain expressed in african green monkey COS7 cells co-transfected with Gal4-LBD by luciferase reporter gene assay relative to control; type: cell-based; set-up: scale not given: the % may be the effect or the level left; settings: COS-7
[4] = molecular target: T3, Androgen receptor (Homo sapiens, UniProt P10275)
T3 sequence (P10275 whole entry): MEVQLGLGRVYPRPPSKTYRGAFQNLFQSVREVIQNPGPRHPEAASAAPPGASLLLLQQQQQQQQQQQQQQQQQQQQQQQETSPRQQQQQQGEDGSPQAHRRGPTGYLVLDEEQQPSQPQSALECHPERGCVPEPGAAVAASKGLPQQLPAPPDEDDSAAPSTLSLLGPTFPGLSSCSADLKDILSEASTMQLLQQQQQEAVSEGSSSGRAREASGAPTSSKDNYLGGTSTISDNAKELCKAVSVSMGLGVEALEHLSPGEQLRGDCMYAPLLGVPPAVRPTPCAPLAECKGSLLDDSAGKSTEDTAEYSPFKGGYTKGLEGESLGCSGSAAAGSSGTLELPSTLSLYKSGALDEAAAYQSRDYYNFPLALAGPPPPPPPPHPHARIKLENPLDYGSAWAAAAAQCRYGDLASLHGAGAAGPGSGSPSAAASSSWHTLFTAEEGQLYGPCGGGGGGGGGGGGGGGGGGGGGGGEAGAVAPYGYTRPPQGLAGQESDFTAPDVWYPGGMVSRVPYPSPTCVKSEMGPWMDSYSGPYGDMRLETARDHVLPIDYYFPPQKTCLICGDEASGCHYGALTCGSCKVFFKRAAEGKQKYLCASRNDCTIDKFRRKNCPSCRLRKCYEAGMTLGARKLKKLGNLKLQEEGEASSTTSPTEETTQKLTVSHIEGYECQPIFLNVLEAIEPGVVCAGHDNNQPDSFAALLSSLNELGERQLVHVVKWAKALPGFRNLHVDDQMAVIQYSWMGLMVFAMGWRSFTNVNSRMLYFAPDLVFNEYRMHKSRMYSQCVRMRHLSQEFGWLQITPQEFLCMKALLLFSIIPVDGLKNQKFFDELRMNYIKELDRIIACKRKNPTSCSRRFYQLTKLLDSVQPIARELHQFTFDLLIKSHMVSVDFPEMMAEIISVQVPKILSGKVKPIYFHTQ
Description: Antagonist activity at androgen receptor ligand binding domain expressed in african green monkey COS7 cells co-transfected with Gal4-LBD by luciferase reporter gene assay

[5] = molecular target: T2, Mineralocorticoid receptor
Description: Antagonist activity at mineralocorticoid receptor ligand binding domain expressed in african green monkey COS7 cells co-transfected with Gal4-LBD by luciferase reporter gene assay

[6] = molecular target: T4, Progesterone receptor (Homo sapiens) (UniProt P06401); assay: Activation of progesterone receptor in human T47D cells after 20 hrs by PRE-tagged luciferase reporter gene assay relative to control; type: cell-based
T4 sequence (whole entry): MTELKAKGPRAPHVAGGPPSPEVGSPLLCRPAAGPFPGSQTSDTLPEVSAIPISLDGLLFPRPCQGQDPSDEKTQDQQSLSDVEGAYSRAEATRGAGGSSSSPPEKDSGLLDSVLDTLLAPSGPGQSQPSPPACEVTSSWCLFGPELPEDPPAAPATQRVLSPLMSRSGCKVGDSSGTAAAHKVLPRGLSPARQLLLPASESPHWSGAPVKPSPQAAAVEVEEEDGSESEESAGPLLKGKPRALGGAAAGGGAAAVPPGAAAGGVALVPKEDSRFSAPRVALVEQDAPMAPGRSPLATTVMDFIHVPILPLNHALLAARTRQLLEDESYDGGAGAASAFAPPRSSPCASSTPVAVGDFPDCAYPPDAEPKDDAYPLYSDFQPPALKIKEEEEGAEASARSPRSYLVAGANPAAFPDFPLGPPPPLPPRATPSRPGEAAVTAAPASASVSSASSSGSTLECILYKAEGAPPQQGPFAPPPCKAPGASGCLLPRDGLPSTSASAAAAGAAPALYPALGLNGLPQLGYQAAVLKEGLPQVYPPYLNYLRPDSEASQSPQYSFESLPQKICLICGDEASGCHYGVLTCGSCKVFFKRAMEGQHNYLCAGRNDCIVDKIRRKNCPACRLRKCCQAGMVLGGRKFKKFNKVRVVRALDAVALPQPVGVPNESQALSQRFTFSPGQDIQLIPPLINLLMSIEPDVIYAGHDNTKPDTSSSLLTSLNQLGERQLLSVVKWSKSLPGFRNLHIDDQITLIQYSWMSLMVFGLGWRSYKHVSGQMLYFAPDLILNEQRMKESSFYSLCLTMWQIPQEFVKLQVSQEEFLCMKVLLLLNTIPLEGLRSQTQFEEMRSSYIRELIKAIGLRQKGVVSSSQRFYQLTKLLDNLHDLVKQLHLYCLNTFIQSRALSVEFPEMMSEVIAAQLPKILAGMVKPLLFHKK

T1 sequence (Q92731 whole entry, the tested form may be a part): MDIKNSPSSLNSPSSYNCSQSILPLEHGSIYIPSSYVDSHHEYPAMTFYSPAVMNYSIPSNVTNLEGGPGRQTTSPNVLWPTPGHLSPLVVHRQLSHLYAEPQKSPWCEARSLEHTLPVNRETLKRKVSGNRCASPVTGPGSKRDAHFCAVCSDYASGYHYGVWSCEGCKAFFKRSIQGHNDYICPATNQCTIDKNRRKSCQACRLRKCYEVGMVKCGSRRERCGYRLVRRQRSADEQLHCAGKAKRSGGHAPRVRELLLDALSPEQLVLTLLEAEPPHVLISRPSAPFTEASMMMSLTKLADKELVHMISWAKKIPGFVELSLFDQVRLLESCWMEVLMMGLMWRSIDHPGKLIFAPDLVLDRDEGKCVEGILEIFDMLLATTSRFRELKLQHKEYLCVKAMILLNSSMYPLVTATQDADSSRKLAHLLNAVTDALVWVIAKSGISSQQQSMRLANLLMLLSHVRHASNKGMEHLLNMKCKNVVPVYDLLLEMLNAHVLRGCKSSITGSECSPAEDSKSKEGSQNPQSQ

| SMILES | pIC50 [1] | EC50 [2] | Activity [3] | pIC50 [4] | pIC50 [5] | Efficacy [6] |
| --- | --- | --- | --- | --- | --- | --- |
| CC1(C)C(=O)CC[C@]2(C)[C@@]3(C)c4[nH]c5ccccc5c4C[C@@H]3CC[C@@]12O [LECANINDOLE B] | < 5.00 | Not Active | 12% | < 5.00 | < 2.00 | < 1% |
| CC1(C)[C@H](O)CC[C@]2(C)[C@@]3(C)c4[nH]c5ccccc5c4C[C@@H]3CC[C@@]12O [LECANINDOLE D] | < 5.52 | Not Active | 64% | < 5.00 | < 2.52 | 68% |

From ChEMBL document CHEMBL1154793, “The lecanindoles, nonsteroidal progestins from the terrestrial fungus Verticillium lecanii 6144” (J Nat Prod, 2009)
